According to BigSolDB 2.1:

CC(C)(C)OC(=O)N[C@@H](CCC(N)=O)C(=O)O
solubility (mole fraction)
Settings	283.15 K	288.15 K	293.15 K	298.15 K	303.15 K	308.15 K	313.15 K	318.15 K	323.15 K
in 2-butanone	0.0208	0.0219	0.0247	0.0294	0.035	0.0408	0.0517	0.068	0.0995
in acetone	0.0586	0.0675	0.0797	0.0959	0.105	0.127	0.146	0.168	0.187
in acetonitrile	0.00293	0.00389	0.00493	0.0064	0.008	0.0113	0.0165	0.0243	0.0356
in ethanol	0.13	0.139	0.148	0.155	0.165	0.177	0.191	0.202	–
in ethyl acetate	0.00199	0.00241	0.00301	0.00377	0.00475	0.00596	0.00774	0.0102	0.0145
in isobutanol	0.0317	0.0398	0.0479	0.055	0.0676	0.0766	0.0843	0.0943	0.108
in isopropanol	0.0536	0.0626	0.0789	0.0922	0.108	0.124	0.153	0.175	0.198
in methyl acetate	0.00534	0.00588	0.00699	0.00843	0.0115	0.0173	0.0254	0.0393	0.0649
in n-butanol	0.0427	0.0487	0.0554	0.0649	0.0748	0.0924	0.119	0.146	–
in n-pentanol	0.0343	0.0352	0.0382	0.0417	0.0481	0.0573	0.07	0.0946	–
in n-propanol	0.057	0.0698	0.0803	0.0938	0.116	0.135	0.162	0.207	–
in water	0.00718	0.00807	0.00935	0.0126	0.0205	0.0307	0.0554	0.0905	–
